Results as given in PubChem BioAssay (NCI).
“And” between values parts separate entries of the source, which are not always exact repeats. Equal entries are not always repeated.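 Cultured in 96-well plates, cells were exposed to test compound for 48 hours across five concentrations. Definition used: TGI = concentration required for complete inhibition of growth.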

What follows are compounds tested on LOX IMVI melanoma (assay: NCI-60 cell line screen, 48 h).

`C[N+]12CCCCC1C(CN1C(=O)Cc3c4ccccc4c(c4ccccc34)CC1=O)CCC2` (stereo not given) and `On1c(-c2ccccc2)nc2ccccc2c1=S` cannot be ordered by TGI: over 100 µM for the first, over 100 µM for the second.

`CC(=O)O[C@H]1CC[C@@]2(C)C(=CC[C@H]3[C@@H]4C[C@H](N5CCOCC5)[C@H](OC(C)=O)[C@@]4(C)CC[C@@H]32)C1` and `C=C([C@@]1(O)C[C@H]2[C@H](CCC2(OC)OC)[C@@H]2c3ccccc3O[C@@H]21)[Si](C)(C)C` cannot be ordered by TGI: over 100 µM for the first, over 100 µM for the second.

Compared with `CCN1CCC(O)(/C=C/c2ccc(C)cc2C)C(C(=O)/C=C/c2ccc(C)cc2C)C1` (stereo not given), `Nc1ccc(C(=O)N2CCC[C@H]2CO)c(N)c1` is higher in TGI: 3.71 µM for the first, over 100 µM for the second.

`CC1=NNC(=O)C1C(CC(=O)c1c[nH]c2ccccc12)C(=O)O` (stereo not given) and `COC(=O)C1=C(C)NC(C)=C(C(=O)OC)C1c1nc2sccn2c1[N+](=O)[O-]` cannot be ordered by TGI: over 100 µM for the first, over 100 µM for the second.

Compared with `COc1ccc2c(c1)CCN1CCc3ccccc3CC21` (stereo not given), `Nc1ccc(S2(c3ccc(N)cc3)C=C(c3ccccc3)C(c3ccccc3)=C2)cc1` is higher in TGI: 58.1 µM for the first, over 100 µM for the second.

Compound `Nc1nc(Cl)cc(NCC2(CO)CCCC2)n1` has a TGI of over 100 µM.

`CN(C)CCOC1(Cc2ccc(F)cc2)CCC(C(C)(C)C)CC1` (stereo not given) was tested, and the TGI was 7.05 µM and 10.5 µM.

These compounds were tested on U251 CNS (assay: NCI-60 cell line screen, 48 h).

`COc1ccc(C2OC(c3ccncc3)=NN2C)cc1OC` (stereo not given) and `COc1ccc2c(c1)CCN1CCc3ccccc3CC21` (stereo not given) cannot be ordered by TGI: over 100 µM for the first, over 100 µM for the second.

`CC12CCC(O)CC1CCC1C2CCC2(C)C(C(=O)CC(O)C(F)(F)F)CCC12` (stereo not given) and `CC(=O)O[C@H]1CC[C@@]2(C)C(=CC[C@H]3[C@@H]4C[C@H](N5CCOCC5)[C@H](OC(C)=O)[C@@]4(C)CC[C@@H]32)C1` cannot be ordered by TGI: over 100 µM for the first, over 100 µM for the second.

First: CC(C)(C)OC(=O)NCCCNC1(c2cc3ccccc3s2)CCCCC1
Second: Nc1nc(Cl)cc(NCC2(CO)CCCC2)n1
The TGI of the first is lower: 74.8 µM for the first, over 100 µM for the second.

`COC1C=COC2(C)Oc3c(C)c(O)c4c(O)c(c(C5SCCS5)c(O)c4c3C2=O)NC(=O)C(C)=C/C=C\C(C)C2OC(C)(C)OC(C2C)C(C)C(OC(C)=O)C1C` (stereo not given) and `C=C([C@@]1(O)C[C@H]2[C@H](CCC2(OC)OC)[C@@H]2c3ccccc3O[C@@H]21)[Si](C)(C)C` cannot be ordered by TGI: over 100 µM for the first, over 100 µM for the second.

`C=CCOc1ccc(C2(O)c3ccccc3C3=NCCCN32)cc1` (stereo not given) and `On1c(-c2ccccc2)nc2ccccc2c1=S` cannot be ordered by TGI: over 100 µM for the first, over 100 µM for the second.

`CCOC(=O)NC(Nc1ccc([N+](=O)[O-])cc1)(C(F)(F)F)C(F)(F)F` and `CCC/C(Cl)=N\OC(=O)Nc1ccc(OC(F)(F)F)cc1` cannot be ordered by TGI: over 100 µM for the first, over 58.1 µM for the second.

`C[N+]12CCCCC1C(CN1C(=O)Cc3c4ccccc4c(c4ccccc34)CC1=O)CCC2` (stereo not given) and `CC1=NNC(=O)C1C(CC(=O)c1c[nH]c2ccccc12)C(=O)O` (stereo not given) cannot be ordered by TGI: over 100 µM for the first, over 100 µM for the second.

Compared with `CCN1CCC(O)(/C=C/c2ccc(C)cc2C)C(C(=O)/C=C/c2ccc(C)cc2C)C1` (stereo not given), `Nc1ccc(C(=O)N2CCC[C@H]2CO)c(N)c1` is higher in TGI: 11.7 µM for the first, over 100 µM for the second.

`Nc1ccc(S2(c3ccc(N)cc3)C=C(c3ccccc3)C(c3ccccc3)=C2)cc1` and `COC(=O)C1=C(C)NC(C)=C(C(=O)OC)C1c1nc2sccn2c1[N+](=O)[O-]` cannot be ordered by TGI: over 100 µM for the first, over 100 µM for the second.

With `CN(C)CCOC1(Cc2ccc(F)cc2)CCC(C(C)(C)C)CC1` (stereo not given) the TGI was 17.3 µM and 19.2 µM.

What follows are compounds tested on UACC-62 melanoma (assay: NCI-60 cell line screen, 48 h).

`COc1ccc(C2OC(c3ccncc3)=NN2C)cc1OC` (stereo not given) and `COc1ccc2c(c1)CCN1CCc3ccccc3CC21` (stereo not given) cannot be ordered by TGI: over 100 µM for the first, over 100 µM for the second.

`CC12CCC(O)CC1CCC1C2CCC2(C)C(C(=O)CC(O)C(F)(F)F)CCC12` (stereo not given) and `CC(=O)O[C@H]1CC[C@@]2(C)C(=CC[C@H]3[C@@H]4C[C@H](N5CCOCC5)[C@H](OC(C)=O)[C@@]4(C)CC[C@@H]32)C1` cannot be ordered by TGI: over 100 µM for the first, over 100 µM for the second.

Compared with `CC(C)(C)OC(=O)NCCCNC1(c2cc3ccccc3s2)CCCCC1`, `CCN1CCC(O)(/C=C/c2ccc(C)cc2C)C(C(=O)/C=C/c2ccc(C)cc2C)C1` (stereo not given) is 2.9-fold lower in TGI: 31.4 µM for the first, 11 µM for the second.

First: COC1C=COC2(C)Oc3c(C)c(O)c4c(O)c(c(C5SCCS5)c(O)c4c3C2=O)NC(=O)C(C)=C/C=C\C(C)C2OC(C)(C)OC(C2C)C(C)C(OC(C)=O)C1C (stereo not given)
Second: C=C([C@@]1(O)C[C@H]2[C@H](CCC2(OC)OC)[C@@H]2c3ccccc3O[C@@H]21)[Si](C)(C)C
The TGI of the first is lower: 15 µM for the first, over 100 µM for the second.

`C=CCOc1ccc(C2(O)c3ccccc3C3=NCCCN32)cc1` (stereo not given) and `C[N+]12CCCCC1C(CN1C(=O)Cc3c4ccccc4c(c4ccccc34)CC1=O)CCC2` (stereo not given) cannot be ordered by TGI: over 57 µM for the first, over 100 µM for the second.

Going from `CCOC(=O)NC(Nc1ccc([N+](=O)[O-])cc1)(C(F)(F)F)C(F)(F)F` to `CCC/C(Cl)=N\OC(=O)Nc1ccc(OC(F)(F)F)cc1`, the TGI falls from over 100 µM to 48.7 µM.

Work on `CC1=NNC(=O)C1C(CC(=O)c1c[nH]c2ccccc12)C(=O)O` (stereo not given) yielded a TGI of over 100 µM.

In the case of `CN(C)CCOC1(Cc2ccc(F)cc2)CCC(C(C)(C)C)CC1` (stereo not given), the TGI is reported as 15.8 µM and 17 µM.
